Source: PMC8286840, “Identifying SARS-CoV-2 antiviral compounds by screening for small molecule inhibitors of Nsp3 papain-like protease” (Biochemical Journal, 2021)
Structures can show the parent of a compound that is named as a salt. Where two headings read alike, the source gives them in different places.

Key:
[1] = biological target: T1, SARS-CoV-2 PLpro (nsp3 1564–1878) (Severe acute respiratory syndrome coronavirus 2, UniProt P0DTD1); assay: biochemical; design: FRET-quenched peptide (Pro3) cleavage by PLpro, 10 min pre-incubation, slope over 20 min, normalised to no-compound control; conditions: high concentration screen, read-out: % of control remaining
[2] = biological target: T1, SARS-CoV-2 PLpro (nsp3 1564–1878); assay: biochemical; design: FRET-quenched peptide (Pro3) cleavage by PLpro, 10 min pre-incubation, slope over 20 min, normalised to no-compound control; conditions: low concentration screen, read-out: % of control remaining

Work on C#C[C@]1(O)CC[C@H]2[C@@H]3[C@H](C)CC4=C(CCC(=O)C4)[C@H]3CC[C@@]21C [Tibolone] yielded a remaining activity at 3.75 µM ([1]; Well no.=1954) of 98.3% and a remaining activity at 1.25 µM ([2]; Well no.=1954) of 97.8%.
CN(C)C(=O)Oc1cccc([N+](C)(C)C)c1 [Neostigmine methyl sulfate] gave a remaining activity at 3.75 µM ([1]; Well no.=6077) of 101% and a remaining activity at 1.25 µM ([2]; Well no.=6077) of 102%.
C=C[C@H]1CN2CC[C@H]1C[C@@H]2[C@@H](O)c1ccnc2ccccc12 [(+)-Cinchonine] was tested, and the remaining activity at 3.75 µM ([1]; Well no.=3198) was 107% and the remaining activity at 1.25 µM ([2]; Well no.=3198) was 109%.
Compound CCCCC[C@H](O)/C=C/[C@@H]1[C@@H](C/C=C\CCCC(=O)O)[C@H](O)C[C@H]1O (racemic) has a remaining activity at 3.75 µM ([1]; Well no.=4479) of 101% and a remaining activity at 1.25 µM ([2]; Well no.=4479) of 101%.
With O=C1C=CC[C@@H]2[C@H]3CCCN4CCC[C@@H](CN12)[C@@H]34 [Sophocarpine] the remaining activity at 3.75 µM ([1]; Well no.=4870) was 101% and the remaining activity at 1.25 µM ([2]; Well no.=4870) was 99.5%.
Compound CC(C)(Sc1cc(C(C)(C)C)c(O)c(C(C)(C)C)c1)Sc1cc(C(C)(C)C)c(O)c(C(C)(C)C)c1 [Probucol] has a remaining activity at 3.75 µM ([1]; Well no.=4083) of 105% and a remaining activity at 1.25 µM ([2]; Well no.=4083) of 98.5%.
Compound O=c1c(-c2ccc(O)cc2)coc2cc(O[C@@H]3O[C@H](CO)[C@@H](O)[C@H](O)[C@H]3O)cc(O)c12 [Genistin] has a remaining activity at 3.75 µM ([1]; Well no.=3213) of 97.9% and a remaining activity at 1.25 µM ([2]; Well no.=3213) of 99.7%.
In the case of O=C(Nc1cccc2c(=O)cc(-c3nnn[nH]3)oc12)c1ccc(OCCCCc2ccccc2)cc1 [Pranlukast], the remaining activity at 3.75 µM ([1]; Well no.=1720) is reported as 101%, the remaining activity at 3.75 µM ([1]; Well no.=7329) is reported as 98.4% and the remaining activity at 1.25 µM ([2]; Well no.=1720) is reported as 99.8%. It also gave a remaining activity at 1.25 µM ([2]; Well no.=7329) of 103%.
CN1CCCCC1CCN1c2ccccc2Sc2ccc([S+](C)[O-])cc21 (stereo not shown) [Mesoridazine besylate] showed a remaining activity at 3.75 µM ([1]; Well no.=2110) of 99.5% and a remaining activity at 1.25 µM ([2]; Well no.=2110) of 97.7%.
NCCc1c[nH]c2ccccc12 [Tryptamine] was tested, and the remaining activity at 3.75 µM ([1]; Well no.=7365) was 99.2% and the remaining activity at 1.25 µM ([2]; Well no.=7365) was 97.9%.
CC(C)CC(N(C)C)C1(c2ccc(Cl)cc2)CCC1 (stereo not shown) [Sibutramine] showed a remaining activity at 3.75 µM ([1]; Well no.=2249) of 98.7% and a remaining activity at 1.25 µM ([2]; Well no.=2249) of 95.2%.
In the case of Nc1ncnc2c1ncn2C1CCCO1 (stereo not shown) [SQ 22536], the remaining activity at 3.75 µM ([1]; Well no.=1517) is reported as 99.9% and the remaining activity at 1.25 µM ([2]; Well no.=1517) is reported as 98.3%.
Compound COC(=O)[C@H]1[C@H]2C[C@H]3c4[nH]c5ccccc5c4CCN3C[C@H]2CC[C@@H]1O [Rauwolscine hydrochloride] has a remaining activity at 3.75 µM ([1]; Well no.=1400) of 99% and a remaining activity at 1.25 µM ([2]; Well no.=1400) of 100%.
In the case of O=C(O)/C=C1\CCCc2ccccc2C1O (stereo not shown) [NCS-382], the remaining activity at 3.75 µM ([1]; Well no.=903) is reported as 99.9% and the remaining activity at 1.25 µM ([2]; Well no.=903) is reported as 101%.
With CC[C@H](C)[C@@H]1NC(=O)[C@H](Cc2ccc(O)cc2)NC(=O)[C@@H](N)CSSC[C@@H](C(=O)N2CCC[C@H]2C(=O)N[C@@H](CC(C)C)C(=O)NCC(N)=O)NC(=O)[C@H](CC(N)=O)NC(=O)[C@H](CCC(N)=O)NC1=O [Oxytocin (acetate)] the remaining activity at 3.75 µM ([1]; Well no.=8107) was 104% and the remaining activity at 1.25 µM ([2]; Well no.=8107) was 107%.
CN[C@@H]1[C@H](O)[C@H](NC)[C@H]2O[C@@]3(O)C(=O)C[C@@H](C)O[C@H]3O[C@@H]2[C@H]1O [Spectinomycin] was tested, and the remaining activity at 3.75 µM ([1]; Well no.=3174) was 110% and the remaining activity at 1.25 µM ([2]; Well no.=3174) was 103%.
Work on Nc1ncnc2c1ncn2[C@@H]1O[C@H](COP(=O)(O)OP(=O)(O)O)[C@@H](O)[C@H]1O [Adenosine 5'-diphosphate] yielded a remaining activity at 3.75 µM ([1]; Well no.=7363) of 105%, a remaining activity at 3.75 µM ([1]; Well no.=7868) of 104% and a remaining activity at 1.25 µM ([2]; Well no.=7363) of 104%. The remaining activity at 1.25 µM ([2]; Well no.=7868) was 102%.
With CCOC(=O)N1CCC(=C2c3ccc(Cl)cc3CCc3cccnc32)CC1 [Loratadine] the remaining activity at 3.75 µM ([1]; Well no.=933) was 98.6%, the remaining activity at 3.75 µM ([1]; Well no.=2274) was 89.3% and the remaining activity at 3.75 µM ([1]; Well no.=7337) was 102%. It also gave a remaining activity at 1.25 µM ([2]; Well no.=933) of 96.2%, a remaining activity at 1.25 µM ([2]; Well no.=2274) of 89.1% and a remaining activity at 1.25 µM ([2]; Well no.=7337) of 98.6%.
CCN1CCCC1CNC(=O)c1cc(S(=O)(=O)CC)c(N)cc1OC (stereo not shown) [Amisulpride] was tested, and the remaining activity at 3.75 µM ([1]; Well no.=2275) was 97.7%, the remaining activity at 3.75 µM ([1]; Well no.=8149) was 107% and the remaining activity at 1.25 µM ([2]; Well no.=2275) was 93.3%. For the same compound, the remaining activity at 1.25 µM ([2]; Well no.=8149) was 107%.
O=C1CC[C@@H](C(=O)O)N1 [L-Pyroglutamic acid] showed a remaining activity at 3.75 µM ([1]; Well no.=6783) of 104% and a remaining activity at 1.25 µM ([2]; Well no.=6783) of 102%.
Work on CO[C@H]1C[C@H](O[C@H]2[C@H](C)[C@@H](O[C@@H]3O[C@H](C)C[C@H](N(C)C)[C@H]3OC(C)=O)[C@@H](C)C[C@@]3(CO3)C(=O)[C@H](C)[C@@H](OC(C)=O)[C@@H](C)[C@@H](C)OC(=O)[C@@H]2C)O[C@@H](C)[C@@H]1OC(C)=O [Troleandomycin] yielded a remaining activity at 3.75 µM ([1]; Well no.=1570) of 99.5%, a remaining activity at 3.75 µM ([1]; Well no.=3188) of 103% and a remaining activity at 1.25 µM ([2]; Well no.=1570) of 96.7%. It also gave a remaining activity at 1.25 µM ([2]; Well no.=3188) of 106%.
Work on CCCN(CCc1ccccc1)C1CCc2c(O)cccc2C1 (racemic) yielded a remaining activity at 3.75 µM ([1]; Well no.=1357) of 103% and a remaining activity at 1.25 µM ([2]; Well no.=1357) of 102%.
CC(=O)OC[C@H](N)C(=O)O [O-Acetylserine] was tested, and the remaining activity at 3.75 µM ([1]; Well no.=6965) was 104% and the remaining activity at 1.25 µM ([2]; Well no.=6965) was 101%.
Work on C[N+](C)(C)CCO [Choline bromide] yielded a remaining activity at 3.75 µM ([1]; Well no.=93) of 97% and a remaining activity at 1.25 µM ([2]; Well no.=93) of 93.4%.
CCC(Sc1nnc2c(n1)[nH]c1ccccc12)C(=O)N1c2ccccc2Sc2ccccc21 (stereo not shown) [Inauhzin] gave a remaining activity at 3.75 µM ([1]; Well no.=6158) of 91.7% and a remaining activity at 1.25 µM ([2]; Well no.=6158) of 100%.
Cc1cc(/C=N/NC(=O)c2cc(Br)c(O)c(Br)c2)c(C)n1-c1cccc([N+](=O)[O-])c1 [Kinesore] gave a remaining activity at 3.75 µM ([1]; Well no.=7784) of 91.7% and a remaining activity at 1.25 µM ([2]; Well no.=7784) of 93.8%.
In the case of COc1ccc(C[C@@H](C)NC[C@H](O)c2ccc(O)c(NC=O)c2)cc1 [Formoterol], the remaining activity at 3.75 µM ([1]; Well no.=473) is reported as 99.6% and the remaining activity at 1.25 µM ([2]; Well no.=473) is reported as 101%.
CN(C)CCN1C(=O)c2ccccc2N(C)c2ccccc21 [Dibenzepine] gave a remaining activity at 3.75 µM ([1]; Well no.=2096) of 99.6% and a remaining activity at 1.25 µM ([2]; Well no.=2096) of 97%.
O=C1N=C(NCc2cccs2)S/C1=C\c1ccc2ncccc2c1 [Cdk1 Inhibitor IV, RO-3306] gave a remaining activity at 3.75 µM ([1]; Well no.=2347) of 104% and a remaining activity at 1.25 µM ([2]; Well no.=2347) of 103%.
For Cc1cc(Cc2cc(C)cc(C(C)(C)C)c2O)c(O)c(C(C)(C)C)c1 [GERI-BP002A], the remaining activity at 3.75 µM ([1]; Well no.=3907) was 97.7% and the remaining activity at 1.25 µM ([2]; Well no.=3907) was 104%.
In the case of Cc1nc(=O)c2cc(CN(C)c3ccc(C(=O)N[C@@H](CCC(=O)O)C(=O)O)s3)ccc2[nH]1 [Raltitrexed], the remaining activity at 3.75 µM ([1]; Well no.=6308) is reported as 99.3%, the remaining activity at 3.75 µM ([1]; Well no.=7452) is reported as 99.7% and the remaining activity at 1.25 µM ([2]; Well no.=6308) is reported as 98.3%. The remaining activity at 1.25 µM ([2]; Well no.=7452) was 104%.
